# Legend:
# Type in all cases: cell-based
# [1] = test system: Loblolly pine (Pinus taeda) embryogenic cell lines; test: Biolistic transformation and selection of transformed sublines with or without ABA in the selection medium (Example 1)
# Text: To prepare for gene transfer, a sterile fabric support (in this example PECAP® fabric support, commercially available from SEFAR Inc.) was placed in a sterile Buchner funnel and one to five milliliters of embryogenic suspension was pipetted onto the fabric support such that the embryogenic tissue was evenly distributed over the surface. The liquid medium was suctioned from the tissues using a mild vacuum. The fabric support with embryogenic tissue was removed from the Buchner funnel and placed on a GELRITE® gelling agent solidified DCR3 preparation medium (Table 2) in 100×25 mm plastic petri dishes. Dishes were incubated in a dark growth chamber at 23°±2° C. for about 24-48 hours.
# DNA was transferred into the tissues by the biolistic method described in U.S. patent application Ser. No. 09/318,136 filed on 25 May 1999 and New Zealand Patent No. 336149, each incorporated herein by reference, using the PDS-1000/He BIOLISTICS® Particle Delivery System (available from Bio-Rad Laboratories). The DNAs of interest, here containing the visual marker gene uidA and the selection gene nptII, were precipitated onto the surface of gold microparticles, which were subsequently accelerated toward embryogenic tissue to penetrate the cell walls. Once inside the cells, DNA is released from the carrier particles and integrated randomly into the chromosomes.
# The petri dishes with the fabric support and embryonic tissues were then placed into the interior of the PDS 1000/He BIOLISTICS® device and vacuum applied to a level of 28 inches Hg. The gold particles carrying the DNA were accelerated toward the embryogenic tissue following a helium build-up and bursting regulated by a 1550 psi rupture disk. In the PDS-1000/He BIOLISTICS® device the gap between the rupture disk and the macrocarrier (gap distance) was five mm and the macrocarrier travel distance was 13 mm. Following DNA transfer the petri dishes containing the fabric support and tissues were incubated in a dark growth chamber at 23°±2° C. for about 24 hours. The tissues and fabric support were transferred to semi-solid maintenance medium, DCR1 (Table 2) to recover from carrier particle bombardment and incubated in a dark growth chamber at 23°±2° C. for a period of about seven days. The tissues and fabric support were transferred to a selection medium, semi-solid maintenance medium DCR1 containing a level of selection agent inhibitory to the growth of non-transformed cells. In this and subsequent examples the selection agent used was GENETICIN® antibiotic at 15-30 mg/l. The plates were incubated in a dark growth chamber at 23°±2° C. for about six to twelve weeks with the fabric supports containing the tissues being transferred to the same fresh culture medium every 2-3 weeks. […]
# [2] = test system: cell lines that are progeny of the elite P. taeda line 7-56; test: Biolistic transformation, ABA in recovery and selection media (Example 2)
# Protocol: Loblolly pine cell lines were used which had been grown and maintained as described in Example 1 above, and prepared for biolistic transformation as described in Example 1 above. In this example, only cell lines that are progeny of the elite P. taeda line 7-56 were used. Following bombardment the support membranes bearing the bombarded embryogenic cells were transferred to DCR2 maintenance media, either with or without the addition of 10 mg/l ABA for one week. Following this the support membranes bearing the bombarded embryogenic cells were placed on plates containing gelled DCR selection medium with 10 mg/l abscisic acid (ABA), and cultured for three days, so that all cells were exposed to 10 mg/l ABA in the selection medium for the first three days of selection. Following this the support membranes bearing the bombarded embryogenic cells were evenly divided among gelled media containing 5, 10, or 20 mg/l ABA for a period of two weeks. Following this, the support membranes bearing the bombarded embryogenic cells were evenly divided among gelled media containing 0, 5, 10, or 20 mg/l ABA for the remaining selection period, and transferred every three weeks to fresh selection media of the same composition.
# The cells were also checked for the presence of sequences by PCR amplification using primers specific for both the uidA and nptII transgenes, techniques well known to those skilled in the art of plant transformation.
# [3] = test system: embryogenic lines of crosses with P. taeda selection 7-56; test: Recovery of transformants from elite crosses with ABA in selection media (Agrobacterium and bombardment experiments)
# [4] = test system: precotyledonary embryos of loblolly pine or hybrid cell lines; test: Bombardment of precotyledonary embryos on preparation medium with high ABA (Example 3); settings: preparation medium for bombardment with 125 mg/L ABA; lines of cross 7-56×9-6 and others incl. interspecific hybrids
# Protocol: For transformation in this example, the tissue was bombarded using conditions described in Example 1 except that the tissue had been plated on MSG2 medium containing 125 mg/L ABA and 70 g/L PEG 3-8 weeks previously, instead of on medium DCR3 one day previously, so that the experimental treatment consisted of precotyledonary embryos at various stages of development. Following DNA transfer, visible pre-stage 3 embryos were dissected from the bombarded tissues and placed individually onto DCR2 as described above for secondary proliferation.
# Following a period of one to 14 days, when a preponderance of pre-stage 3 embryos dissected from the bombarded tissue could be seen to be beginning to proliferate secondary embryogenic cell masses, samples to be assayed for transformation were transferred to a selection medium identical to DCR2 except that it contained […] to initiate secondary embryogenesis. Samples of isolated pre-stage 3 embryos from each line and the secondary tissue proliferating from them were also cultured on DCR2 maintenance media without selection agent to observe any effect of the bombardment treatment on proliferation. These cultures were transferred to fresh maintenance media every three weeks. Proliferation of these non-selected controls at nine weeks after dissection is recorded in Table 4. […]
compound,measurement,setting,value
"CC1=CC(=O)CC(C)(C)[C@@]1(O)/C=C/C(C)=C\C(=O)O [ABA, abscisic acid]",stable transformants after nine weeks of selection,[1]; 10 mg/L ABA in medium only during the first three weeks of selection,Stable transformants were detected
same,stable transformants after nine weeks of selection,[1]; ABA in selection medium throughout the entire nine-week selection period,more transformants were detected
same,"transformants from a cell line of an elite family, progeny of P. taeda elite line 7-56",[1]; ABA in the selection medium vs none,observed only on treatments that had contained ABA in the selection medium
same,number of transformants obtained,"[1]; ABA present during the entire period of transfer, all lines tested",equal to or greater than the number obtained for any other treatment
same,number of transformants detected,[2]; 10 mg/L ABA in the recovery media,did not significantly increase the number of transformants detected
same,transformants recovered after ten weeks of selection,"[2]; 5, 10, or 20 mg/l ABA present for the latter 9 weeks of selection",Transformants were recovered
same,transformants recovered after ten weeks of selection,[2]; ABA concentration increased to 20 mg/l after the first transfer on selection media,the largest number of transformants were recovered
same,lines attempted from which transformants recovered,"[3]; cross 7-56×9-6, ABA in the selection media",more than 80%
same,lines attempted from which transformants recovered,"[3]; crosses with elite P. taeda selection 7-56 as a parent, ABA in selection media, media containing 5-30 mg/L ABA",more than 80%
same,frequency of transformants,[4],surprisingly high frequency of transformants
